Results reported in patent publication US8030320B2, “Derivatives of 1-OXO-1,2-dihydroisoquinoline-5-carboxamides and of 4-OXO-3,4-dihydroquinazoline-8-carboxamides, preparation thereof and application thereof in therapeutics” (Sanofi-Aventis, priority 2007, dated 2011).
Structures can show the parent of a compound that is named as a salt.

How the values were obtained:
[1] = target: T1, purified recombinant form of human BACE1 aspartyl protease (Homo sapiens, UniProt P56817); experiment: BACE-1 FRET assay, in vitro inhibition of β-secretase activity; format: biochemical; settings: peptide substrate 0.25 μM, enzyme 10 nM, sodium acetate buffer pH 4.5, 60 min, ambient temperature; read-out: IC50 (concentration of product giving 50% inhibition of the enzyme activity)
T1 construct: hexahistidine (His6) (C); made in house; host or cells: Drosophila cells
T1 sequence (P56817 46-501): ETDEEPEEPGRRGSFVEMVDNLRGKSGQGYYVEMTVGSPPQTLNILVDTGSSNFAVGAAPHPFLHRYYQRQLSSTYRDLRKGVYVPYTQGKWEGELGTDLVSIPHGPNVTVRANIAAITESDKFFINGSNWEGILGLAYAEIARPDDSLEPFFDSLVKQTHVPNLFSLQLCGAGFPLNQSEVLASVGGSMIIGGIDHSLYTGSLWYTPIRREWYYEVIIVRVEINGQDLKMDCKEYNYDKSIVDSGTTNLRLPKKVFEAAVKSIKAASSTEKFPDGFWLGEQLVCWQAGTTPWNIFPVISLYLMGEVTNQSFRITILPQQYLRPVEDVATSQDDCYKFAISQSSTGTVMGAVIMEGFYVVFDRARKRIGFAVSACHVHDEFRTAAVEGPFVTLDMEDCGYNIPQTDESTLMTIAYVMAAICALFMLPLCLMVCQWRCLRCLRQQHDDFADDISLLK
Description: The tests consisted in measuring the in vitro inhibition of the β-secretase activity by the compounds of the invention, via the use of the “BACE-1 FRET Assay Kit, Red” available from PanVera-Invitrogen Inc. The β-secretase activity measured corresponds to that of a purified recombinant form of human BACE1 aspartyl protease (the latter comprising a hexahistidine tag at the C-terminal position) produced by expression in Drosophila cells. The purified enzyme is conditioned in TRIS buffer (18 mM) at pH 7.5 containing NaCl (0.45M), MnCl2 (0.9 mM), CaCl2 (0.9 mM), α-D-methylmannoside and 10% glycerol, and stored at −80° C. until use. The BACE1 activity is measured from the cleavage of a fluorogenic peptide substrate sold by Invitrogen (PanVera BACE1/β-secretase FRET assay kit, Red; reference P2985), based on the principle of fluorescence resonance energy transfer (FRET) and corresponding to the Rh-EVNLDAEFK-Quencher sequence; the cleavage of the peptide is measured from the increase of the fluorescent signal emitted by the rhodamine derivative (Rh). The test is carried out in a 96-well microplate in order to determine the inhibition of the enzyme activity by the products of the invention. […] When the incubation is finished, the fluorescence is measured in a spectrofluorimeter, at the excitation wavelength of about 543 nm and emission wavelength of about 585 nm. […]

| SMILES | IC50 [1] | melting point |
| --- | --- | --- |
| CCCC(CCC)n1ccc2c(C(=O)N[C@@H](Cc3ccccc3)[C@H](O)CNCc3cccc(C(F)(F)F)c3)cccc2c1=O [Compound 1, N-[(1S,2R)-1-benzyl-2-hydroxy-3-{[3-(trifluoromethyl)benzyl]-amino}propyl]-1-oxo-2-(1-propylbutyl)-1,2-dihydroisoquinoline-5-carboxamide hydrochloride (1:1)] | 2600 nM |  |
| CCCC(CCC)n1cnc2c(C(=O)N[C@@H](Cc3ccccc3)[C@H](O)CNCc3cccc(C(F)(F)F)c3)cccc2c1=O.Cl [Compound 3, N-[(1S,2R)-1-benzyl-2-hydroxy-3-{[3-(trifluoromethyl)benzyl]-amino}propyl]-4-oxo-3-(1-propylbutyl)-3,4-dihydroquinazoline-8-carboxamide hydrochloride (1:1)] | 830 nM | 152 °C |
